Data from PubChem BioAssay AID2060336 (Molecular Pharmacology Branch, DTP, NCI, 2025).
“And” between values parts separate entries of the source, which are not always exact repeats. Equal entries are not always repeated.

System: 958767-090-R-J1-PDC spheroid growth
Experiment: Anticancer human tumor 958767-090-R-J1-PDC patient-derived head and neck squamous carcinoma cell line growth inhibition [IpAb]
Conditions: spheroids with HUVEC and MSC; for viability, T/C: stronger effect = lower value
Summary of the method: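 Multi-cell spheroids of 60% tumour cells, 25% HUVEC and 15% MSC in ultra-low-attachment U-bottom wells, treated with agents combined with ipatasertib or abemaciclib. Half-log ranges top out near clinical Cmax, or 10 microM when Cmax is unknown.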

[1] = curve of first compound, second compound 0.1 µM
[2] = curve of first compound, second compound 0.316 µM
[3] = curve of first compound, second compound 1 µM
[4] = second compound 0.1 µM, first compound 0.000316 µM
[5] = second compound 0.1 µM, first compound 0.001 µM
[6] = second compound 0.1 µM, first compound 0.00316 µM
[7] = second compound 0.1 µM, first compound 0.01 µM
[8] = second compound 0.1 µM, first compound 0.0316 µM
[9] = second compound 0.1 µM, first compound 0.1 µM
[10] = second compound 0.316 µM, first compound 0.000316 µM
[11] = second compound 0.316 µM, first compound 0.001 µM
[12] = second compound 0.316 µM, first compound 0.00316 µM
[13] = second compound 0.316 µM, first compound 0.01 µM
[14] = second compound 0.316 µM, first compound 0.0316 µM
[15] = second compound 0.316 µM, first compound 0.1 µM
[16] = second compound 1 µM, first compound 0.000316 µM
[17] = second compound 1 µM, first compound 0.001 µM
[18] = second compound 1 µM, first compound 0.00316 µM
[19] = second compound 1 µM, first compound 0.01 µM
[20] = second compound 1 µM, first compound 0.0316 µM
[21] = second compound 1 µM, first compound 0.1 µM
[22] = curve of first compound, second compound 0.01 µM
[23] = curve of first compound, second compound 0.0316 µM
[24] = second compound 0.01 µM, first compound 0.0316 µM
[25] = second compound 0.01 µM, first compound 0.1 µM
[26] = second compound 0.0316 µM, first compound 0.0316 µM
[27] = second compound 0.0316 µM, first compound 0.1 µM
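Also: spheroids exposed to agents for 7 days.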
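For viability, T/C in this document: 100% = DMSO vehicle control wells.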

With CC(=O)c1c(C)c2cnc(Nc3ccc(N4CCNCC4)cn3)nc2n(C2CCCC2)c1=O the viability, T/C (compound 0.000949 µM) was 76.6% and 103%, the viability, T/C (compound 0.003 µM) was 66.5% and 83.4% and the viability, T/C (compound 0.00949 µM) was 62.2% and 75.6%. The viability, T/C (compound 0.03 µM) was 62.2% and 68.8%, the viability, T/C (compound 0.0949 µM) was 63.7% and 65.3% and the viability, T/C (compound 0.3 µM) was 54.1% and 51.8%. For the same compound, the IC50 (curve of compound) was greater than 300 nM.

CC(C)n1nc(-c2ccc3oc(N)nc3c2)c2c(N)ncnc21 + CC(C)NCC(C(=O)N1CCN(c2ncnc3c2C(C)CC3O)CC1)c1ccc(Cl)cc1 was tested, and the IC50 [1] was 9.11 nM, the IC50 [2] was 1.82 nM and the IC50 [3] was 1.13 nM. It also gave an IC50 (curve of first compound, second compound 3.16 µM) of 0.83 nM, an IC50 (curve of first compound, second compound 10 µM) of less than 0.316 nM and a viability, T/C [4] of 78.4%. The viability, T/C [5] was 72.8%, the viability, T/C [6] was 53.6% and the viability, T/C [7] was 57.9%. The viability, T/C [8] was 32.8%, the viability, T/C [9] was 32.6% and the viability, T/C [10] was 72.4%. It also gave a viability, T/C [11] of 58.5%, a viability, T/C [12] of 43.5% and a viability, T/C [13] of 29.8%. The viability, T/C [14] was 37.4%, the viability, T/C [15] was 33.4% and the viability, T/C [16] was 59.1%. The viability, T/C [17] was 51.9%, the viability, T/C [18] was 40.7% and the viability, T/C [19] was 34%. It also gave a viability, T/C [20] of 29.1%, a viability, T/C [21] of 25% and a viability, T/C (second compound 3.16 µM, first compound 0.000316 µM) of 61.4%. The viability, T/C (second compound 3.16 µM, first compound 0.001 µM) was 47.2%, the viability, T/C (second compound 3.16 µM, first compound 0.00316 µM) was 37.2% and the viability, T/C (second compound 3.16 µM, first compound 0.01 µM) was 26%. The viability, T/C (second compound 3.16 µM, first compound 0.0316 µM) was 21.1%, the viability, T/C (second compound 3.16 µM, first compound 0.1 µM) was 17.2% and the viability, T/C (second compound 10 µM, first compound 0.000316 µM) was 47.4%. It also gave a viability, T/C (second compound 10 µM, first compound 0.001 µM) of 42.5%, a viability, T/C (second compound 10 µM, first compound 0.00316 µM) of 34.6% and a viability, T/C (second compound 10 µM, first compound 0.01 µM) of 17%. The viability, T/C (second compound 10 µM, first compound 0.0316 µM) was 13.6% and the viability, T/C (second compound 10 µM, first compound 0.1 µM) was 13%.

Compound CCCS(=O)(=O)Nc1ccc(F)c(C(=O)c2c[nH]c3ncc(-c4ccc(Cl)cc4)cc23)c1F + CCN1CCN(Cc2ccc(Nc3ncc(F)c(-c4cc(F)c5nc(C)n(C(C)C)c5c4)n3)nc2)CC1 has an IC50 [22] greater than 10000 nM, an IC50 [23] of 9200 nM and an IC50 [1] of 8260 nM. It also gave an IC50 [2] greater than 10000 nM, an IC50 [3] greater than 10000 nM and a viability, T/C [24] of 93.1%. The viability, T/C [25] was 93.6%, the viability, T/C (second compound 0.01 µM, first compound 0.316 µM) was 91.4% and the viability, T/C (second compound 0.01 µM, first compound 1 µM) was 93.7%. The viability, T/C (second compound 0.01 µM, first compound 3.16 µM) was 87.7%, the viability, T/C (second compound 0.01 µM, first compound 10 µM) was 60.2% and the viability, T/C [26] was 88.5%. It also gave a viability, T/C [27] of 93.2%, a viability, T/C (second compound 0.0316 µM, first compound 0.316 µM) of 92.1% and a viability, T/C (second compound 0.0316 µM, first compound 1 µM) of 73.6%. For the same compound, the viability, T/C (second compound 0.0316 µM, first compound 3.16 µM) was 62%, the viability, T/C (second compound 0.0316 µM, first compound 10 µM) was 48.3% and the viability, T/C [8] was 83.3%. The viability, T/C [9] was 82%, the viability, T/C (second compound 0.1 µM, first compound 0.316 µM) was 82.9% and the viability, T/C (second compound 0.1 µM, first compound 1 µM) was 70.8%. The viability, T/C (second compound 0.1 µM, first compound 3.16 µM) was 71.7%, the viability, T/C (second compound 0.1 µM, first compound 10 µM) was 45.6% and the viability, T/C [14] was 66.1%. It also gave a viability, T/C [15] of 54.8%, a viability, T/C (second compound 0.316 µM, first compound 0.316 µM) of 56.7% and a viability, T/C (second compound 0.316 µM, first compound 1 µM) of 67.8%. The viability, T/C (second compound 0.316 µM, first compound 3.16 µM) was 67.1%, the viability, T/C (second compound 0.316 µM, first compound 10 µM) was 44.4% and the viability, T/C [20] was 89.5%. For the same compound, the viability, T/C [21] was 78.6%, the viability, T/C (second compound 1 µM, first compound 0.316 µM) was 74.9% and the viability, T/C (second compound 1 µM, first compound 1 µM) was 79.5%. For the same compound, the viability, T/C (second compound 1 µM, first compound 3.16 µM) was 69.5% and the viability, T/C (second compound 1 µM, first compound 10 µM) was 51.9%.

Cn1ncnc1[C@H]1c2n[nH]c(=O)c3cc(F)cc(c23)N[C@@H]1c1ccc(F)cc1 + CCN1CCN(Cc2ccc(Nc3ncc(F)c(-c4cc(F)c5nc(C)n(C(C)C)c5c4)n3)nc2)CC1 gave an IC50 [22] greater than 100 nM, an IC50 [23] greater than 100 nM and an IC50 [1] greater than 100 nM. For the same compound, the IC50 [2] was 32.2 nM, the IC50 [3] was greater than 100 nM and the viability, T/C (second compound 0.01 µM, first compound 0.000316 µM) was 90.1%. It also gave a viability, T/C (second compound 0.01 µM, first compound 0.001 µM) of 93.3%, a viability, T/C (second compound 0.01 µM, first compound 0.00316 µM) of 66.3% and a viability, T/C (second compound 0.01 µM, first compound 0.01 µM) of 84%. The viability, T/C [24] was 75%, the viability, T/C [25] was 66% and the viability, T/C (second compound 0.0316 µM, first compound 0.000316 µM) was 83.6%. The viability, T/C (second compound 0.0316 µM, first compound 0.001 µM) was 75.1%, the viability, T/C (second compound 0.0316 µM, first compound 0.00316 µM) was 67.8% and the viability, T/C (second compound 0.0316 µM, first compound 0.01 µM) was 46.2%. It also gave a viability, T/C [26] of 52.8%, a viability, T/C [27] of 67.4% and a viability, T/C [4] of 68.8%. It also gave a viability, T/C [5] of 64.6%, a viability, T/C [6] of 60.8% and a viability, T/C [7] of 56.6%. The viability, T/C [8] was 50.2%, the viability, T/C [9] was 59.4% and the viability, T/C [10] was 59.2%. The viability, T/C [11] was 53.8%, the viability, T/C [12] was 49.3% and the viability, T/C [13] was 54%. It also gave a viability, T/C [14] of 56.8%, a viability, T/C [15] of 43.4% and a viability, T/C [16] of 70.8%. It also gave a viability, T/C [17] of 73.7%, a viability, T/C [18] of 70.5% and a viability, T/C [19] of 60.2%. The viability, T/C [20] was 56.6% and the viability, T/C [21] was 58.2%.
